{
  "source": "paper PMC7002685",
  "about": "“Inhibition of vascular calcification by inositol phosphates derivatized with ethylene glycol oligomers” (Nature Communications, 2020)",
  "key": {"Estrogen ERα": {"target": "T1, Estrogen ERα (Homo sapiens, UniProt P03372)", "T1 construct": "purchased Eurofins Panlabs Discovery Services Taiwan, Ltd", "assay": "Off-target 226010", "format": "binding", "procedure": "(§1) The potential off-target activity of 10 µM (OEG2)2-IP4 was assessed against a panel of 87 enzymes, receptors, or ion channels that are used in standard safety pharmacology screens.\n(§2) 3.2. Off-target screening assay\n(§3) The experiments were conducted by a contract research organization (Eurofins Panlabs Discovery Services Taiwan, Ltd.) and details on the respective assays can be retrieved via the catalog number provided in Supplementary Table 11 from the company’s webpage\n(§4) (https://www.eurofinsdiscoveryservices.com/). […]\n(§5) At sacrifice the left tibia of animals of the rat model with dietary adenine/high-phosphate-induced uremia and VC was collected, fixed with 70% v/v EtOH and embedded in methyl methacrylate. The trabecular bone compartment is known to be the most metabolic active i.e. actively re-structured bone compartment in CKD. Therefore, histomorphometric and micro-computed tomography (µCT) analysis of bone was performed on the trabecular compartment. Tibial sections were Goldner-stained for histomorphometric analysis of the proximal metaphysis using the AxioVision Release 4.5 software, as […]\n(§6) described previously5. […]"}, "Progesterone PR-B": {"target": "T2, Progesterone PR-B (Homo sapiens, UniProt P06401)", "T2 construct": "purchased Eurofins Panlabs Discovery Services Taiwan, Ltd", "T2 sequence (P06401 whole entry)": "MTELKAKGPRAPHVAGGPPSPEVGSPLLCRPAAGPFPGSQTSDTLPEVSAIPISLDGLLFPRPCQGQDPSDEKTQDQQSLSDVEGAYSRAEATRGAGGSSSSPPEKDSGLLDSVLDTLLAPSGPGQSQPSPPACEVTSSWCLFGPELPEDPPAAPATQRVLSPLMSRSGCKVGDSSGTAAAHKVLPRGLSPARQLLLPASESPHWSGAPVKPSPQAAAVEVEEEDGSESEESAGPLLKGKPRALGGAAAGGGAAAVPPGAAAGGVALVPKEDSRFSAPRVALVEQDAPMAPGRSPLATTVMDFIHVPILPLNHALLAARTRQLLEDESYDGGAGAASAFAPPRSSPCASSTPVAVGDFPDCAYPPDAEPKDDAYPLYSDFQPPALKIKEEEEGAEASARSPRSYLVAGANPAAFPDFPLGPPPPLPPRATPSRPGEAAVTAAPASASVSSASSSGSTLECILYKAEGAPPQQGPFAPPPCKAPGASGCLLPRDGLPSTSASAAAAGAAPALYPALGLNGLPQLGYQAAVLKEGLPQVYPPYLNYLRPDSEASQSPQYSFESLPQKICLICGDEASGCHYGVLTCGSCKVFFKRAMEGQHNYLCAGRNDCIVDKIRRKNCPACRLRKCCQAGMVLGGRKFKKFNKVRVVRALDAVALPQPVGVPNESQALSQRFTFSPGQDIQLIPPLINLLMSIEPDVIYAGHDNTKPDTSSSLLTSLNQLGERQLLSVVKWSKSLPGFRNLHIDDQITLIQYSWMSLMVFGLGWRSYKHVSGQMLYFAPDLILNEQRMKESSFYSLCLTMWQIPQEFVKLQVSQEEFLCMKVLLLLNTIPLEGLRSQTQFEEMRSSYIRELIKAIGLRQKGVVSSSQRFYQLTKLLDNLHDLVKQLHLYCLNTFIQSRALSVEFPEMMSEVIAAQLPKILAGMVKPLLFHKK", "assay": "Off-target 299005", "format": "binding", "procedure": "as §1, §2, §3, §4, §5, §6"}, "[1]": {"target": "T3, (Rattus norvegicus, UniProt P43140)", "T3 construct": "purchased Eurofins Panlabs Discovery Services Taiwan, Ltd", "T3 sequence (P43140 whole entry)": "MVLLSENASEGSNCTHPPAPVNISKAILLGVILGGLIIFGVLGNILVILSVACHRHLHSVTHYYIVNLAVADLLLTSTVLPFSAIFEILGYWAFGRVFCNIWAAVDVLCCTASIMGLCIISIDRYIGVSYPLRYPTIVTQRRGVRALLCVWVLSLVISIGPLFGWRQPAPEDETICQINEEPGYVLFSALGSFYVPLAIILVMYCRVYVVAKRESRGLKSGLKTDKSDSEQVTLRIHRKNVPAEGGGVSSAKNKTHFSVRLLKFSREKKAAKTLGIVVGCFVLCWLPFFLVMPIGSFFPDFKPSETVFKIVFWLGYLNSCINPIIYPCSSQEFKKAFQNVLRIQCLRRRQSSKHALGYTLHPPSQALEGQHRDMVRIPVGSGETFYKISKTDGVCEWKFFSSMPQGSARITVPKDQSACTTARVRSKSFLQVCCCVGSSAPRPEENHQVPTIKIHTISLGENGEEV", "assay": "Off-target 203100", "format": "binding", "procedure": "as §1, §2\n(§7) The experiments were conducted by a contract research organization (Eurofins Panlabs Discovery\n(§8) Services Taiwan, Ltd.) and details on the respective assays can be retrieved via the catalog number\n(§9) provided in Supplementary Table 11 from the company’s webpage\nas §4"}, "[2]": {"target": "T4, ATPase, Na+/K+, Heart, Pig (Sus scrofa, UniProt P05024)", "T4 construct": "purchased Eurofins Panlabs Discovery Services Taiwan, Ltd", "assay": "Off-target 107710", "format": "biochemical", "procedure": "as §1, §2, §7, §8, §9, §4"}, "[3]": {"target": "T5, Serotonin (5-Hydroxytryptamine) 5-HT1B (Homo sapiens, UniProt P28222)", "T5 construct": "purchased Eurofins Panlabs Discovery Services Taiwan, Ltd", "T5 sequence (P28222 whole entry)": "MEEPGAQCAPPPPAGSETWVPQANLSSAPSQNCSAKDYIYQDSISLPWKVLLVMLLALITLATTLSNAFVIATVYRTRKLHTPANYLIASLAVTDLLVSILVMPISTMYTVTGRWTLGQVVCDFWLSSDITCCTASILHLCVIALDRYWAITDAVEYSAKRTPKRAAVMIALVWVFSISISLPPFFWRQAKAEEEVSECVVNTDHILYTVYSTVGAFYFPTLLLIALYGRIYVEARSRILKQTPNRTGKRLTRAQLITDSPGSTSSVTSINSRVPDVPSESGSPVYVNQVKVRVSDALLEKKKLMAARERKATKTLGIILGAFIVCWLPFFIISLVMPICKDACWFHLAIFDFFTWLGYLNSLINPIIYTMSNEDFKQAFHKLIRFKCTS", "assay": "Off-target 271230", "format": "binding", "procedure": "as §1, §2, §3, §4, §5, §6"}, "[4]": {"assay": "18F-NaF micro-PET/CT uptake on calcified human aortic valves ex vivo", "format": "binding", "procedure": "To investigate (OEG2)2-IP4 interaction with calcified tissues in a clinically relevant context, a competitive binding assay using ^18F-NaF was applied on severely calcified human femoral arteries and native aortic valves ex vivo. […] First, ^18F-NaF uptake was measured on tissue samples treated with vehicle (human serum) and thereafter, using the same tissue samples, treated with (OEG2)2-IP4 in serum.\nTriplicate aliquots of CPP2s (20 µg Ca/mL) in 100 μL assay buffer (100 mM HBS, pH 7.4 (RT)) were incubated for 1 h at RT in the presence of increasing concentrations of compounds in 50 μL Milli-Q water and ^18F-NaF (1 nM) in 50 μL assay buffer, resulting in a total incubation volume of 200 μL (^18F-NaF was prepared using a FASTlab synthesizer (GE Healthcare, Little Chalfont, UK) and commercially available ^18F-NaF cassettes (GE Healthcare)). Maximum radiotracer binding was determined by incubating CPP2s with ^18F-NaF (1 nM) only. The reaction was terminated by rapid filtration through a SOLAμ™ SPE plate (HRP 2 mg/mL 96-well plate, 22 μm; Thermo Fisher Scientific). SPE individual column matrices were washed twice rapidly in assay buffer and radioactivity on the filters determined by an automatic gamma counter (Wizard2 Gamma Counter, Perkin Elmer, Waltham, MA, USA). […]"}, "[5]": {"system": "Glutamate, NMDA, Phencyclidine", "assay": "Off-target 233000", "format": "binding, Rat", "details": "10 µM", "procedure": "as §1, §2, §3, §4, §5, §6"}, "Phosphodiesterase PDE4": {"system": "Phosphodiesterase PDE4", "assay": "Off-target 154000", "format": "biochemical, Human", "details": "10 µM", "procedure": "as §1, §2, §3, §4, §5, §6"}, "Muscarinic M4": {"target": "T6, Muscarinic M4 (Homo sapiens, UniProt P08173)", "T6 construct": "purchased Eurofins Panlabs Discovery Services Taiwan, Ltd", "assay": "Off-target 252910", "format": "binding", "procedure": "as §1, §2, §7, §8, §9, §4"}, "hERG potassium channel": {"target": "T7, hERG potassium channel (Homo sapiens, UniProt Q12809)", "T7 construct": "purchased Eurofins Panlabs Discovery Services Taiwan, Ltd", "T7 sequence (Q12809 whole entry)": "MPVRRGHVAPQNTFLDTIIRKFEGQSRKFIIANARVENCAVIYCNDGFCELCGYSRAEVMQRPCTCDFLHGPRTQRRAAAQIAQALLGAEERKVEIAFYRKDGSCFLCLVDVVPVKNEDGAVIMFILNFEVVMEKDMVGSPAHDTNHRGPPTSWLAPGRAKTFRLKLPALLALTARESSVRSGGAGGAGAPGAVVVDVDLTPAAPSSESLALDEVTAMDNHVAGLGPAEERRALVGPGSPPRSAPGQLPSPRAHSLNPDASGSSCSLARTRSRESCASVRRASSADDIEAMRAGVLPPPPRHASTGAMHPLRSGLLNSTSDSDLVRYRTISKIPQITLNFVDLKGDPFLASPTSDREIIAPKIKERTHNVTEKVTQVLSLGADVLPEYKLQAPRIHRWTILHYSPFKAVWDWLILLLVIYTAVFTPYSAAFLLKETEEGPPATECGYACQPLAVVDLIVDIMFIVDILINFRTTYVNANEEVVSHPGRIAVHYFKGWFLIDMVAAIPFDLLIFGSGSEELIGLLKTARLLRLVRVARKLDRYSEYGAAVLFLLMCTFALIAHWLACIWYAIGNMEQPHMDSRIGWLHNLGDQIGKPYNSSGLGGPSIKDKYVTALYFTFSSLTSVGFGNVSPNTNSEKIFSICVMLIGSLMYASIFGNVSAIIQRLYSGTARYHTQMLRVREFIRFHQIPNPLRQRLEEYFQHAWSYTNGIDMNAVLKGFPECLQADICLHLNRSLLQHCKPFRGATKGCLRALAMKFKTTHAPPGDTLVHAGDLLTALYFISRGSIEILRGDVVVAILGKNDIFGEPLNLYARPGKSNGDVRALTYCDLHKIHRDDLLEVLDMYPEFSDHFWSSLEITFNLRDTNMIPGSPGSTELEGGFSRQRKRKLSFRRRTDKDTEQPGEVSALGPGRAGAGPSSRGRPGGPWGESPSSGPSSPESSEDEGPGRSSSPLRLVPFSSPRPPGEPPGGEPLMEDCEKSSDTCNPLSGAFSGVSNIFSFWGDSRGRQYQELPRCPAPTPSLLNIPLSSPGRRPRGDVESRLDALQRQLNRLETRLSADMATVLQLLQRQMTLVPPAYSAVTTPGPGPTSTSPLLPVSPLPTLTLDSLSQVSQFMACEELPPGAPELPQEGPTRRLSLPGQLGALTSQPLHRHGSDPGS", "assay": "Off-target 265900", "format": "binding", "procedure": "as §1, §2, §3, §4, §5, §6"}, "[6]": {"assay": "PK after sub-chronic s.c. treatment (7 days)", "format": "in vivo, male Sprague-Dawley rats", "details": "for plasma concentration: unit not given", "procedure": "To study PK in healthy animals, male Sprague-Dawley rats (Harlan, Correzzana, Italy) were housed up to three per cage with free access to water and standard chow (pellets 12 mm, global diet 2018 certificate, Mucedola, Srl, Settimo Milanese, Italy), and submitted to a 12-h light/dark cycle. Animals were administered i.v. 10 mg/kg of (OEG2)2-IP4 in saline solution i.v. (30 s bolus, 5 mL/kg) and s.c. (5 mL/kg), respectively, in three animals per route and treatment. […] Plasma calcium concentration was determined in pre-dose samples and in t = 30 min samples of both acute and chronic treatments using the calcium colorimetric assay. Blood samples of 100 µL were drawn at several time points from the caudal vein, centrifuged at (3000 × g, 4 °C, 10 min) and stored at −80 °C until analysis by liquid chromatography–tandem mass spectrometry (LC-MS/MS)."}, "[7]": {"target": "T8, Platelet Activating Factor (PAF) (Homo sapiens, UniProt P25105)", "T8 construct": "purchased Eurofins Panlabs Discovery Services Taiwan, Ltd", "T8 sequence (P25105 whole entry)": "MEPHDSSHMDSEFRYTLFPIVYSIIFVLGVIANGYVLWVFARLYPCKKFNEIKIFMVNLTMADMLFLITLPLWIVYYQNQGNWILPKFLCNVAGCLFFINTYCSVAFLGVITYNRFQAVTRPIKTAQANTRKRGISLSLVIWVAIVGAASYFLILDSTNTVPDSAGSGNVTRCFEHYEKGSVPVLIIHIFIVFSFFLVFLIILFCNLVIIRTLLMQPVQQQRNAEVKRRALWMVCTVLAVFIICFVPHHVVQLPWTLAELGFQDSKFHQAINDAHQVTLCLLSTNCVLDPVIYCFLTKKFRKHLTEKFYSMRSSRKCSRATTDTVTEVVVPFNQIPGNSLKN", "assay": "Off-target 265010", "format": "binding", "procedure": "as §1, §2, §7, §8, §9, §4"}, "[8]": {"target": "T9, Protein Tyrosine Kinase, Insulin Receptor (Homo sapiens, UniProt P06213)", "T9 construct": "purchased Eurofins Panlabs Discovery Services Taiwan, Ltd", "T9 sequence (P06213 28-1382)": "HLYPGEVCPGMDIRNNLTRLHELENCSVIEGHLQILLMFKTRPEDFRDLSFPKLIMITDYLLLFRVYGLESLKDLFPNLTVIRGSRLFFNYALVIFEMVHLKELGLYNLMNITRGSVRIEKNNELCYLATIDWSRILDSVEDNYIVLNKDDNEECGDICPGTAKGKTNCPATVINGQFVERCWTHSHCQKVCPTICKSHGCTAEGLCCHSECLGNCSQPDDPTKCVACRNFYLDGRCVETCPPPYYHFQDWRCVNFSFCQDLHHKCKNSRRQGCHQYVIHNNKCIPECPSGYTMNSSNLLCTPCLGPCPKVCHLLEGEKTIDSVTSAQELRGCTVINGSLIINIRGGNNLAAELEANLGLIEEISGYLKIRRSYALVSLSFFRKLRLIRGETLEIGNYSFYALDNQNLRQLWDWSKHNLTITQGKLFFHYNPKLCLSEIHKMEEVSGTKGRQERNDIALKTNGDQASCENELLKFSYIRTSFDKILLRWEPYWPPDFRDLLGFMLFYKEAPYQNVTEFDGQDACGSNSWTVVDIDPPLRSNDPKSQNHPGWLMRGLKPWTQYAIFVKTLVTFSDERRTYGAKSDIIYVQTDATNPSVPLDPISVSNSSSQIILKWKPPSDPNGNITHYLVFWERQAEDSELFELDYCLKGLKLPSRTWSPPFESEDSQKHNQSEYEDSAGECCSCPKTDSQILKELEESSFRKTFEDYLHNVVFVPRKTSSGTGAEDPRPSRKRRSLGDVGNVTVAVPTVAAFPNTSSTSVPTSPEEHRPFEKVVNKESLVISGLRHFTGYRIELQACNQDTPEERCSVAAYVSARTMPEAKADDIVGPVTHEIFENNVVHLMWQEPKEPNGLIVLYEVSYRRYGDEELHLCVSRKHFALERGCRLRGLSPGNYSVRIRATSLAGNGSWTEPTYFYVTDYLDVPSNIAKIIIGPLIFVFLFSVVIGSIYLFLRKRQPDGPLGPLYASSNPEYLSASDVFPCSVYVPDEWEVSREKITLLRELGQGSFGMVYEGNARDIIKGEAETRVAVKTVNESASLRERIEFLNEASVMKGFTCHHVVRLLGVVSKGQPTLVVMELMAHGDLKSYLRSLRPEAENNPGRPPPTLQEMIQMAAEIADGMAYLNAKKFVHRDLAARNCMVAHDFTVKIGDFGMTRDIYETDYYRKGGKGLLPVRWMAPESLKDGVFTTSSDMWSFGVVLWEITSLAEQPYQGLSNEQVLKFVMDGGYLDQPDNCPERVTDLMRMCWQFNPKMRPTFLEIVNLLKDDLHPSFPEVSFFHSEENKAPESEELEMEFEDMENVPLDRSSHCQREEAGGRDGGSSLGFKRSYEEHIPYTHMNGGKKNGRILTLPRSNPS", "assay": "Off-target 174990", "format": "biochemical", "procedure": "as §1, §2, §3, §4, §5, §6"}, "[9]": {"assay": "PK s.c. in rats with vitamin D and warfarin-induced VC", "format": "in vivo", "details": "Sprague-Dawley, rat, plasma, sc, 50 mg/kg, 50 mg/kg s.c."}},
  "note": "“And” between values parts separate entries of the source, which are not always exact repeats. Identical values can stand only once.",
  "data": [
    {"smiles": "COCCOCCO[C@@H]1[C@@H](OP(=O)(O)O)[C@H](OCCOCCOC)[C@@H](OP(=O)(O)O)[C@@H](OP(=O)(O)O)[C@H]1OP(=O)(O)O", "note": "[(OEG2)2-IP4, 4,6-Di-O-(methoxy-diethyleneglycol)-myo-inositol-1,2,3,5-tetrakis(phosphate)]", "values": [
      {"measurement": "inhibition at 10 µM", "setting": "Estrogen ERα", "value": -1, "unit": "%"},
      {"measurement": "inhibition at 10 µM", "setting": "Progesterone PR-B", "value": -4, "unit": "%"},
      {"measurement": "inhibition at 10 µM", "setting": "[1]", "value": 1, "unit": "%"},
      {"measurement": "inhibition at 10 µM", "setting": "[2]", "value": 6, "unit": "%"},
      {"measurement": "inhibition at 10 µM", "setting": "[3]", "value": -4, "unit": "%"},
      {"measurement": "change of 18F-NaF uptake vs vehicle", "setting": "[4]; 8.6 μM in human serum", "value": "−33", "unit": "%"},
      {"measurement": "maximum average 18F binding (18F-NaF-PET)", "setting": "[4]; IC90 concentration in human serum, individual samples Fig. 3k, unit not given", "value": "547.591 and 685.802 and 706.308"},
      {"measurement": "% Inhibition", "setting": "[5]", "value": 7, "unit": "%"},
      {"measurement": "% Inhibition", "setting": "Phosphodiesterase PDE4", "value": 12, "unit": "%"},
      {"measurement": "inhibition at 10 µM", "setting": "Muscarinic M4", "value": 1, "unit": "%"},
      {"measurement": "inhibition at 10 µM", "setting": "hERG potassium channel", "value": 11, "unit": "%"},
      {"measurement": "accumulation following repeated s.c. administration", "setting": "[6]; 50 mg/kg for 7 days", "value": "No significant accumulation"},
      {"measurement": "plasma concentration", "setting": "[6]; 50 mg/kg/day s.c. sub-chronic (7 days), time 0", "value": "0.18 and 0.24 and 0.25 and 0.16"},
      {"measurement": "plasma concentration", "setting": "[6]; 50 mg/kg/day s.c. sub-chronic, time 0.5", "value": "82.39 and 90 and 95.45 and 69.57"},
      {"measurement": "plasma concentration", "setting": "[6]; 50 mg/kg/day s.c. sub-chronic, time 1", "value": "64.18 and 72.74 and 67.54 and 66.21"},
      {"measurement": "plasma concentration", "setting": "[6]; 50 mg/kg/day s.c. sub-chronic, time 2", "value": "31.83 and 38.97 and 22.86 and 35.06"},
      {"measurement": "plasma concentration", "setting": "[6]; 50 mg/kg/day s.c. sub-chronic, time 8", "value": "0.78 and 0.86 and 0.76 and 0.85"},
      {"measurement": "plasma concentration", "setting": "[6]; 50 mg/kg/day s.c. sub-chronic, time 24", "value": "0.07 and 0.13 and 0.08"},
      {"measurement": "inhibition at 10 µM", "setting": "[7]", "value": -7, "unit": "%"},
      {"measurement": "inhibition at 10 µM", "setting": "[8]", "value": -22, "unit": "%"},
      {"measurement": "AUC(0-inf)", "setting": "[9]; Healthy", "value": 101, "unit": "µM·h"},
      {"measurement": "CL/F", "setting": "[9]; Healthy", "value": "11 ± 1", "unit": "mL/min/kg"},
      {"measurement": "Cmax", "setting": "[9]; Healthy", "value": "49 ± 7", "unit": "µM"},
      {"measurement": "half-life", "setting": "[9]; Healthy (before induction of calcification)", "value": "3.92 ± 0.267", "unit": "h"},
      {"measurement": "AUC(0-t)", "setting": "[9]; Healthy, read-out: AUC0-1440 (converted)", "value": 101, "unit": "µM·h"},
      {"measurement": "MRT last", "setting": "[9]; Healthy, read-out: MRT0-1440 (converted)", "value": 2.27, "unit": "h"}
    ]}
  ]
}
